The record followed here is US11446300B2 (Alexion Pharmaceuticals, Inc., priority 2015, dated 2022).

One test has as its system SYK and JAK signaling. Briefly: Phase I study, inhibition of SYK and JAK in whole blood assays. The class given is in vivo, human. As to the method: (§1) Pharmacokinetics (“PK”), pharmacodynamics (“PD”), and safety were monitored. Response was assessed by standard criteria. The level of inhibition of SYK and JAK was determined using a variety of whole blood assays measuring signaling via receptors for the B-cell antigen, IL2, IL4, IL6, and GM-CSF. Serum markers of tumor burden, including CCL3, CCL4, and other markers of inflammation (02M and CRP), were also being measured.

A further test deals with DHL4. Nature of the test: DLBCL cell line viability, CellTiter Glo, ten-point curve. The format is cell-based. The conditions noted are these: read-out: IC50 of Kinase Inhibitor in Cell Titer Glo Assay. For orientation: Cellular ATP, detected with luciferase, serves as a proxy for viable cell number.
In the next test the target is T1, JAK2 (Homo sapiens, UniProt O60674).
T1 construct: endogenous in cells; host or cells: whole blood of dosed patients
T1 sequence (O60674 whole entry): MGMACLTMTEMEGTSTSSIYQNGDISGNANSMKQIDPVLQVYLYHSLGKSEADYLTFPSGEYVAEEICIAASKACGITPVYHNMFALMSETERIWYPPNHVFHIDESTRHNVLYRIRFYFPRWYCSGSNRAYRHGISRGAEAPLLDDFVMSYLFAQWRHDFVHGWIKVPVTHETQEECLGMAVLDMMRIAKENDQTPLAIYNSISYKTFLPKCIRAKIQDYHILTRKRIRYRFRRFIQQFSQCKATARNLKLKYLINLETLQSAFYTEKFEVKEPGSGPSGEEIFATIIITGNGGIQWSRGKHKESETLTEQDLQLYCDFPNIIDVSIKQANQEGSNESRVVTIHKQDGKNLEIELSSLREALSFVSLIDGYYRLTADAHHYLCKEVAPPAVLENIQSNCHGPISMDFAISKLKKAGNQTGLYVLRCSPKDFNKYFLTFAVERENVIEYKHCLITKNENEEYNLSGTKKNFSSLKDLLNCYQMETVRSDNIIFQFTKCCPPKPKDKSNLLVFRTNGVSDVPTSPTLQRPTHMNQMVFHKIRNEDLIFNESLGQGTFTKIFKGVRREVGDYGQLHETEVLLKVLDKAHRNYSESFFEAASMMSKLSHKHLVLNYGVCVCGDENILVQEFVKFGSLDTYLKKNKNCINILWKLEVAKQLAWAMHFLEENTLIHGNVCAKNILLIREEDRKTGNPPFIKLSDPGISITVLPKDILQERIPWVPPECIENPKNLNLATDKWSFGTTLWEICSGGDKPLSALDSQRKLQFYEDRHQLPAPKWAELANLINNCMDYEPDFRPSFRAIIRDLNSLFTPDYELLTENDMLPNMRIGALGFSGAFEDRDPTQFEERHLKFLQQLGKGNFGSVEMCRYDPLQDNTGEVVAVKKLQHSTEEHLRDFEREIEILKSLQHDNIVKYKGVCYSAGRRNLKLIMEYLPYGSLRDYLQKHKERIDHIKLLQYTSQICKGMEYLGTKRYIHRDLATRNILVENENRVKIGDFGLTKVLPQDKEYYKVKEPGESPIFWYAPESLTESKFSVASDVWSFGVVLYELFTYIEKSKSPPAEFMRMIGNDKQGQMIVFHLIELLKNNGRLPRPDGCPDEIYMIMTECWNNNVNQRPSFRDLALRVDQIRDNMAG
Briefly: Phase I study, selectivity of signaling inhibition. The conditions noted are these: in vivo. How it is done: as §1

A further test deals with NFκB. Nature of the test: CD40L-induced NFκB activation in DLBCL cell lines. The class given is cell-based. The text has this:
Consistent with the loss of IκBα in RCK8, the cell line presented with enhanced basal NFκB activity. […] […] We then attempted to knock IκBα down in cerdulatinib-sensitive cell lines using siRNA to determine if resistance to SYK/JAK inhibition could be generated. […] Ligation of CD40 leads to a transient down-regulation of IκBα at the protein level. […] The impact on NFκB activation was much longer, however, and of 7 cerdulatinib-sensitive cell lines tested, 5 were made resistant by co-culture with CD40L. Associated with this resistance was not only induction of NFκB, but also pERK Y204, pAKT S473, and pSTAT3 Y705.

A further test deals with RCK8. Briefly: DLBCL cell line viability, CellTiter Glo, ten-point curve. The format is cell-based.
The subject of a further test is DHL5. Described as above. The class given is cell-based. The conditions noted are these: read-out: IC50 of Kinase Inhibitor in Cell Titer Glo Assay.

The term IC50 denotes the concentration that gives 50% inhibition.

Excerpt for DHL5: Each IC50 value is an average of at least four replicate experiments.

For the compound `CCS(=O)(=O)N1CCN(c2ccc(Nc3ncc(C(N)=O)c(NC4CC4)n3)cc2)CC1` [Cerdulatinib, 4-(cyclopropylamino)-2-(4-(4-(ethylsulfonyl)piperazin-1-yl)phenylamino)pyrimidine-5-carboxamide], in the test with SYK and JAK signaling (45 mg BID), the “inhibition of SYK and JAK at SS Cmin, peripheral blood assays” value is on record as “complete inhibition”. Besides, the inhibition at 65 mg with SYK and JAK signaling (Homo sapiens, 24 h, 65 mg dose, day 1 of cycle 1, read-out: inhibition of SYK/JAK and serum inflammation markers) lay in the range of 80 to 90%. Further, the “inhibition of SYK and JAK signaling in peripheral blood (steady-state Cmin to Cmax)” value with SYK and JAK signaling (QD dosing of 40-100 mg) lay within 50 to 100%. Besides, the half-maximal inhibitory concentration (IC50) in the test on DHL4 came out at 1.4 µM; in the test with RCK8 (Homo sapiens, RCK8 cell line, read-out: IC50 of Kinase Inhibitor in Cell Titer Glo Assay), 15.6 µM; in the test on DHL5, 0.31 µM. The “inhibition of JAK2” value at JAK2 is “no inhibition”. Moreover, in the test with NFκB, the “CD40L-induced NFκB activation” value is recorded as “not inhibited”. Also, the “response of cell line” value in the test on RCK8 (RCK8) is on record as “resistant”.
